Test results: patent US20180153837A1, “METHODS OF IMPROVING PHYSIOLOGICAL RESPONSES RELATED TO POST-TRAUMATIC STRESS DISORDER THROUGH DIETARY SUPPLEMENTATION” (Natural Alternatives International, Inc., priority 2015, published 2018)
Read-outs that look alike come from different tables or passages of the source.

Key:
brain carnosine [1] = details: for Brain Carnosine Concentrations, Amygdala / Brain Carnosine Concentrations, Cortex / Brain Carnosine Concentrations, Hippocampus / Brain Carnosine Concentrations, Hypothalamus / Brain Carnosine Concentrations, Olfactory bulb / Brain Carnosine Concentrations, Thalamus: 30 days BA, mean ± SD
Experimental: (§1) Adult male Sprague-Dawley rats weighing 200-250 gm (n=122) were habituated to housing conditions for at least seven days. All animals were housed four per cage in a vivarium with stable temperature and a reversed 12-h light/dark cycle, with unlimited access to food and water. β-alanine was provided with glucomannan in a powder form in an 80:20 blend. Rats were provided with 100 mg of the powder per kg of body mass (a total of 30 mg of powder was dissolved in 25 ml of water). PL treated rats were provided with the vehicle (glucommanan) at the same relative dose. Animals were handled once daily. All testing was performed during the dark phase in dim red light conditions. This study was performed according to the principles and guidelines of the National Institute of Health Guide for the Care and Use of Laboratory Animals. All treatment and testing procedures were approved by the Animal Care Committee of the Ben-Gurion University of the Negev, Israel.
Rats were randomly assigned to one of four treatment groups (n=30 or 31 per group):
(§2) Following the 7-day acclimation period in which all rats received a normal powder diet, they were randomized into the four groups. Following 30-days of either normal diet or β-alanine supplemented diet the rats were exposed to either the PSS or sham protocol. All behavioral tests were conducted 7 days following the PSS or sham protocol, and the rats were then sacrificed 24 hours later and brains were removed. Diets were maintained until the end of the study.
(§3) Following the 30-day supplementation regimen, animals were exposed to the PSS protocol. The PSS protocol consisted of placing the experimental animal on well-soiled cat litter (in use by the cat for 2 days, sifted for stools) for 10 minutes in a closed environment. Control animals were exposed to fresh, unused litter for the same amount of time. The situational reminder consisted of placing animals on fresh, unused cat litter for 15 minutes.
Carnosine concentrations in brain homogenates were determined by LC-MS-MS analysis.
Brains were partially thawed on ice and six brain regions were sampled: cerebral cortex, hypothalamus, hippocampus, amygdala, olfactory bulb, and thalamus. Each sample was weighed and transferred into individual vials for further homogenization.
Brain samples were homogenized in saline (0.9% NaCl; 100 mg/l ml) supplemented with 1 mM EDTA, using Polytron Homogenizer. Homogenates were stored at −20°±5° C. prior to LC/MS/MS analysis. L-Carnosine purchased from Sigma was used to prepare standards for the calibration curve (in ppb). Samples were diluted ×5 prior to analysis. The concentration read from the standard curve was multiplied by the dilution factor and converted to ppm units.

corticosterone = test system: corticosterone
Experimental: as §1
Following the 7-day acclimation period in which all rats received a normal powder diet, they were randomized into the four groups. Following 30-days of either normal diet or β-alanine supplemented diet the rats were exposed to either the PSS or sham protocol. […]
Plates were read at 450 nm. […] All samples were measured in duplicate.

mice = details: β-alanine supplemented diet; cited from earlier work
[2] = β-alanine taken as a free amino acid; cited from earlier work
[3] = test system: animal model of post-traumatic stress disorder (PTSD)
Experimental: as §1, §2, §3

brain carnosine [4] = details: mice, β-alanine supplemented diet; cited from earlier work
BDNF [5] = test system: BDNF
Experimental: as §1, §2

BDNF [6] = details: mice, β-alanine supplemented diet; cited from earlier work
[7] = PSS+BA: rats exposed to PSS, Day 8 post-PSS
[8] = UNEX+BA: rats not exposed to PSS
[9] = PSS+PL compared with PSS+BA (and UNEX groups), 7 days after PSS

Compound: NCCC(=O)O [BA, β-alanine]
- Brain Carnosine Concentrations, Amygdala (brain carnosine [1]; [7]): 3.52 ± 3.84 a, c mg · L^−1
- Brain Carnosine Concentrations, Cortex (brain carnosine [1]; [7]): 6.55 ± 4.90 a, c mg · L^−1
- Brain Carnosine Concentrations, Hippocampus (brain carnosine [1]; [7]): 5.58 ± 4.39 a, c mg · L^−1
- Brain Carnosine Concentrations, Hypothalamus (brain carnosine [1]; [7]): 4.54 ± 4.04 a, c mg · L^−1
- Brain Carnosine Concentrations, Olfactory bulb (brain carnosine [1]; [7]): 13,109 ± 9,773 mg · L^−1
- Brain Carnosine Concentrations, Thalamus (brain carnosine [1]; [7]): 5.97 ± 4.48 a, c mg · L^−1
- Brain Carnosine Concentrations, Amygdala (brain carnosine [1]; [8]): 2.34 ± 3.04 mg/L
- Brain Carnosine Concentrations, Cortex (brain carnosine [1]; [8]): 3.78 ± 4.47 a mg · L^−1
- Brain Carnosine Concentrations, Hippocampus (brain carnosine [1]; [8]): 3.75 ± 3.98 a mg · L^−1
- Brain Carnosine Concentrations, Hypothalamus (brain carnosine [1]; [8]): 2.60 ± 2.85 mg/L
- Brain Carnosine Concentrations, Olfactory bulb (brain carnosine [1]; [8]): 8,309 ± 6,887 mg · L^−1
- Brain Carnosine Concentrations, Thalamus (brain carnosine [1]; [8]): 3.99 ± 5.10 a mg · L^−1
- Brain carnosine concentrations in the hippocampus and other brain sections (brain carnosine [1]; animals supplemented with BA compared to PL): significantly greater
- influence on carnosine concentrations in the olfactory bulb (brain carnosine [1]; supplemented versus normal diet): did not appear to have any influence
- corticosterone concentrations (corticosterone; PSS+BA compared with unexposed animals, p<0.001): significantly higher corticosterone concentrations
- corticosterone concentrations (corticosterone; exposed rats normal diet versus exposed rats BA, p=0.837): No significant differences
- activity in the open arms of an elevated plus-maze test (mice): significantly greater activity
- duration of flushing/tingling of the skin [2]: less than 60 minutes
- startle amplitude ([3]; PSS+BA compared with PSS+PL, p=0.085): tended to have a lower startle amplitude
- EPM scores ([3]; PSS+BA compared with UNEX+BA): comparable scores to UNEX+BA
- startle amplitude ([3]; PSS+BA compared with unexposed animals (normal diet p<0.001; BA p=0.0001)): significantly greater
- immobility upon cue ([3]; PSS+BA compared with unexposed animals (normal diet p=0.01; BA p=0.003)): significantly greater immobility upon cue
- freezing, difference ([3]; PSS+BA less than PSS+PL, p=0.148): approximately 6%
- freezing, significance of difference ([3]; PSS+BA versus PSS+PL, p=0.148): not statistically different
- freezing upon cue-exposure (percentage of total time) ([3]; PSS+BA, Day 8): 34.8%
- number of open arm entries in the EPM [3, 9]: significantly less
- time in the open arms of the EPM [3, 9]: significantly less time in the open arms
- Anxiety index ([3]; PSS+PL compared with PSS+BA, p<0.05): higher
- startle habituation score ([3]; animals exposed to PSS regardless of diet versus unexposed groups, p<0.001): significantly lower habituation score
- lower startle response ([3]; exposed + β-alanine versus exposed not supplemented, p=0.085): 19%
- lower freezing response ([3]; exposed + β-alanine versus exposed not supplemented, p=0.148): 15%
- brain carnosine concentrations in the cerebral cortex and hypothalamus (brain carnosine [4]): increase brain carnosine concentrations
- BDNF expression, CA1 subregion (BDNF [5]; PSS+BA compared with PSS+PL, p<0.001): significantly greater than exposed rats fed a normal diet
- BDNF expression, DG subregion (BDNF [5]; PSS+BA compared with PSS+PL, p=0.011): greater
- BDNF expression, CA1 subregion (BDNF [5]; PSS+BA compared with unexposed animals): significantly lower than unexposed animals
- BDNF expression, DG subregion (BDNF [5]; PSS+BA compared with unexposed animals (p=0.765, p=0.818)): not statistically different
- BDNF expression in unexposed rats (BDNF [5]; UNEX+BA versus UNEX+PL): did not appear to increase BDNF expression
- concentration of BDNF in the hippocampus (BDNF [6]): increase the concentration of BDNF
